Key:
[1] = target: T1, Glutamate receptor ionotropic, AMPA (Rattus norvegicus, UniProt P19490+P19491+P19492+P19493); assay: Inhibition of [3H]AMPA binding to Ionotropic glutamate receptor from rat whole brain.
Rattus norvegicus [2] = species on record: Rattus norvegicus; assay: The compound was tested for anti-KA-Induced Neurotoxicity in rat primary hippocampal cultures.; assay type: functional; settings: Hippocampus
Glutamate NMDA receptor [3] = assay: The compound was tested for its ability to inhibit [3H]Glu binding to N-methyl-D-aspartate glutamate receptor from rat whole brain.
Glutamate NMDA receptor [4] = assay: The compound was tested for its ability to inhibit [3H]Gly binding to N-methyl-D-aspartate glutamate receptor from rat whole brain.
[5] = target: T1, Glutamate receptor ionotropic, AMPA; assay: The compound was tested for its ability to inhibit [3H]AMPA binding to Ionotropic glutamate receptor AMPA from rat whole brain
Glutamate NMDA receptor [6] = assay: The compound was tested for its ability to inhibit [3H]Gly binding to N-methyl-D-aspartate glutamate receptor from rat whole brain
Rattus norvegicus [7] = species on record: Rattus norvegicus; assay: The compound was tested for anti-KA-Induced Neurotoxicity in rat primary hippocampal cultures; assay type: functional; settings: Hippocampus

SMILES | Ki [1] | also measured
Cc1nnc2c(O)nc3cc([N+](=O)[O-])c(-n4ccnc4)cc3n12 | 96 nM | 
Oc1nc2cc(C(F)(F)F)c(-n3ccnc3)cc2n2ccnc12 | 66 nM | IC50 (Rattus norvegicus [2]): 320 nM
Cc1nccn1-c1cc2nc(O)c(O)nc2cc1[N+](=O)[O-] | 390 nM | 
CCc1cnc2c(O)nc3cc([N+](=O)[O-])c(-n4ccnc4)cc3n12 | 20 nM | 
O=C1Nc2cc(-n3ccnc3)c([N+](=O)[O-])cc2C1=O | > 100000 nM | 
O=[N+]([O-])c1cc2nc(O)c3nccn3c2cc1-n1ccnc1 | 57 nM | Ki (Glutamate NMDA receptor [3]): > 300000 nM; Ki (Glutamate NMDA receptor [4]): > 300000 nM; IC50 (Rattus norvegicus [2]): 300 nM
CCc1nnc2c(O)nc3cc([N+](=O)[O-])c(-n4ccnc4)cc3n12 | 48 nM | 
CCC1CN=C2C(=O)Nc3cc([N+](=O)[O-])c(-n4ccnc4)cc3N21 (configuration not stated) | 150 nM | 
CCCc1nnc2c(O)nc3cc(-n4ccnc4)c([N+](=O)[O-])cc3n12 | 6600 nM | 
CCCc1nnc2c(O)nc3cc([N+](=O)[O-])c(-n4ccnc4)cc3n12 |  | Ki [5]: 99 nM
CCCn1c(=O)c(=O)[nH]c2cc([N+](=O)[O-])c(-n3ccnc3)cc21 | 130 nM | 
O=[N+]([O-])c1cc2nc(O)c3nncn3c2cc1-n1ccnc1 | 190 nM | 
CCCCc1nnc2c(O)nc3cc([N+](=O)[O-])c(-n4ccnc4)cc3n12 |  | Ki [5]: 70 nM
O=c1[nH]c2cc([N+](=O)[O-])c(-n3ccnc3)cc2n(O)c1=O |  | Ki (Glutamate NMDA receptor [6]): 4200 nM; IC50 (Rattus norvegicus [7]): 310 nM
Cc1nccn1-c1cc2c(cc1[N+](=O)[O-])nc(O)c1ncc(C)n12 | > 10000 nM | 
NS(=O)(=O)c1cccc2c1c([N+](=O)[O-])cc1nc(O)c(O)nc12 [NBQX] |  | IC50 (Rattus norvegicus [2]): 380 nM
O=c1[nH]c2cc(-n3ccnc3)c([N+](=O)[O-])cc2[nH]c1=O [YM-90K] |  | IC50 (Rattus norvegicus [2]): 810 nM

— ChEMBL document CHEMBL1130419, “8-(1H-imidazol-1-yl)-7-nitro-4(5H)-imidazo[1,2-alpha]quinoxalinone and related compounds: synthesis and structure-activity relationships for the AMPA-type non-NMDA receptor” (J Med Chem, 1997)
